Laboratory results from patent US20180370912A1, “COMPOUNDS AND METHODS FOR TREATING DISEASES MEDIATED BY PROTEIN DISULFIDE ISOMERASE” (Beth Israel Deaconess Medical Center, Inc., priority 2017, published 2018).
pIC50: −log10 of the molar value.

Assays:
PDI [1] = target: T1, PDI (Homo sapiens, UniProt P07237); assay: Insulin reductase (turbidimetric) assay; type: biochemical; conditions: for selectivity for PDI among thiol isomerases: versus ERp5, ERp57, thioredoxin, concentrations 10-fold higher than IC50
T1 construct: FLAG; made in house; host or cells: Escherichia coli Origami B (DE3), pET-15b
Procedure: (§1) The thiol isomerase-catalyzed reduction of insulin was assayed by measuring the increase in turbidity as detected at an optical density (OD) of 650 nm using a Spectramax M3 (Molecular Devices, Sunnyvale, Calif.). The validation assay consisted of 175 nM of PDI in a solution containing 100 mM potassium phosphate (pH 7.4) containing 0.2 mM bovine insulin, 2 mM EDTA, and 0.3 mM DTT (all purchased from Sigma Aldrich, St. Louis, Mo.), inhibitors were used at the concentrations indicated. The reaction was performed at 25° C. for one hour and thirty minutes. For assays of thiol isomerase selectivity, 11 nM PDI, ERp57 or Thioredoxin, or 33 nM ERpS were assayed in similar buffer conditions as described above and inhibitors were used at the indicated concentration. The reaction was performed at 37° C. for forty-five minutes. For assays of isolated domains studies, 400 nM protein was used, except for a, a′ and ab, in which 800 nM protein was used. The assay was performed in similar buffer conditions as described above. Bepristat 2a and N-(2,4-Dimethoxyphenyl)-N-(1-oxo-2-propyn-1-yl)-2-(2-thienyl)glycyl-glycine ethyl ester (PACMA-31) were used at a final concentration of 15 μM in these studies.
Reversibility studies were performed by incubating 20 μM PDI with 6 μM of bepristat 2a or 300 μM of PACMA-31. After 30 minute equilibration; the PDI-inhibitor mixture was diluted 100 fold into the above mentioned assay buffer. The reductase activity of these mixtures were compared to PDI in the presence or absence of 6 μM bepristat 2a or 0.06 μM bepristat 2a or 300 μM PACMA-31 or 3 μM PACMA-31.

PDI [2] = target: T1, PDI; assay: Di-eosin-GSSG disulfide reductase assay; type: biochemical
Procedure: The probe di-eosin glutathione disulfide, di-eosin-GSSG, was prepared as previously described in Raturi, A., Vacratsis, P. O., Seslija, D., Lee, L. & Mutus, B., Biochem J 391, 351-357 (2005). Reductase activity of purified thiol isomerases and PDI domains was monitored in a 96-well fluorescence plate format. PDI, AGHA-PDI, ERpS, ERp57, ERp72 and PDI domains were assayed at 50 nM in the presence or absence of the indicated small molecules, peptides or cathepsin G. The assay included 100 mM potassium phosphate (pH 7.4) containing 2 mM EDTA, 5 μM DTT and 150 nM of the di-eosin GSSG probe. The increase in fluorescence was determined for 20 minutes by excitation at 520 nm and emission at 550 nm in a Synergy Biotek 4. The reduction of 150 nM di-eosin-GSSG by 5 μM DTT in the presence or absence of mentioned small molecules, peptides or proteins served as a negative control.
Michaelis Menten analysis was assayed using PDI at 20 nM and small molecules, peptides or cathepsin G at concentrations causing maximal augmentation under similar buffer conditions as described above. 8-point response curves were generated using a range of different di-eosin-GSSG concentrations (50-5000 nM). Enzyme kinetics analysis was performed using Graphpad Prism 5.0.

Washed human platelets = assay: Platelet aggregation, light transmission aggregometry; type: cell-based; conditions: for inhibition of SFLLRN-induced platelet aggregation: 30 μM, 3 μM SFLLRN, FIG. 2d; for reversibility of inhibition of platelet aggregation after washing: platelets incubated with antagonist, washed, then stimulated with SFLLRN
Procedure: Platelet aggregation was performed as previously described in Jasuja, R. et al., J Clin Invest 122, 2104-2113 (2012). Briefly, platelet rich plasma (PRP) was obtained from healthy volunteers. Platelets were isolated by centrifugation at 2,000 g and resuspended in Hepes-Tyrode buffer (134 mM […], 2.9 mM KCl, 12 mM sodium bicarbonate, 20 mM HEPES, 1 mM magnesium chloride, 5 mM glucose [pH 7.3]). Washed human platelets (2.5×10^8 platelets/mL) were incubated with the indicated concentrations of bepristats and PACMA-31 at 37° C. for 20 minutes and then exposed to 3 μM PAR-1 activating peptide SFLLRN. Aggregation was measured using a Chrono-Log 680 Aggregation System.

[3] = target: T2, PDI domain fragments (a, a′, ab, abb′, b′xa′) (Homo sapiens, UniProt P07237); assay: Insulin reductase assay of isolated PDI domains; type: biochemical; conditions: FIG. 4a
T2 construct: a (residues 1-117), a′ (residues 342-462), ab (residues 1-218), abb′ (residues 1-331), or b′xa′ (residues 219-462); His; made in house; host or cells: Escherichia coli Origami B (DE3), pET-15b
Procedure: as §1

[4] = target: T3, PDI domain fragments (a, a′, ab, abb′, b′xa′) (Homo sapiens, UniProt P07237); assay: Insulin reductase assay of isolated PDI domains; type: biochemical; conditions: FIG. 4a; remark: listed apart in the source
T3 construct: a (residues 1-117), a′ (residues 342-462), ab (residues 1-218), abb′ (residues 1-331), or b′xa′ (residues 219-462); His; made in house; host or cells: Escherichia coli Origami B (DE3), pET-15b
T3 sequence (P07237 18-235): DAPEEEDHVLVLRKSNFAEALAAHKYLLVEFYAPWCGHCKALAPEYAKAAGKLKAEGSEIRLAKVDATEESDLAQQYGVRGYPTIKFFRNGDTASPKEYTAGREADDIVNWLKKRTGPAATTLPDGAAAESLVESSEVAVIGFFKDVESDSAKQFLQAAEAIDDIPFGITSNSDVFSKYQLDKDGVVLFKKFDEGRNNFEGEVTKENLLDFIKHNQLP
Procedure: as §1

[5] = target: T4, PDI domain fragments (a, a′, ab, abb′, b′xa′) (Homo sapiens, UniProt P07237); assay: Insulin reductase assay of isolated PDI domains; type: biochemical; conditions: FIG. 4a; remark: listed apart in the source
T4 construct: a (residues 1-117), a′ (residues 342-462), ab (residues 1-218), abb′ (residues 1-331), or b′xa′ (residues 219-462); His; made in house; host or cells: Escherichia coli Origami B (DE3), pET-15b
T4 sequence (P07237 18-348): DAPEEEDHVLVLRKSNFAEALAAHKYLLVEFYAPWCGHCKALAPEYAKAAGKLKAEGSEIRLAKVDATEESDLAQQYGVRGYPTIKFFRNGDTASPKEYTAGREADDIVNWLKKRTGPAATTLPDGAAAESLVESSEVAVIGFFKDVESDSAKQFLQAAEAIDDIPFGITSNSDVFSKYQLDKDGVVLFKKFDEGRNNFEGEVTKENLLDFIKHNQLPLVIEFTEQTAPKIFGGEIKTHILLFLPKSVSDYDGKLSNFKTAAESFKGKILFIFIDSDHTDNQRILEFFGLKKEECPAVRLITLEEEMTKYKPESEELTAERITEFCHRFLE
Procedure: as §1

PDI [6] = target: T1, PDI; assay: ANS fluorescence; type: binding; conditions: 100 μM inhibitor, 50 μM ANS, FIG. 4c
Procedure: The binding of 1-Anilinonaphthalene-8-Sulfonic Acid (ANS) to full length PDI and the different domains of PDI was assessed by incubating 5 μM of protein in the presence or absence of 100 μM of the indicated inhibitors in 175 μL of TBS at 37° C. for 1 hour. Subsequently, 50 μM of ANS was added and the mixture was incubated in the dark at 25° C. for 20 minutes. Fluorescence spectrum (Ex: 370 nm, Em: 400-700 nm) was measured in a 384-well plate. The experiment was performed in triplicate.

T1 sequence (P07237 18-508): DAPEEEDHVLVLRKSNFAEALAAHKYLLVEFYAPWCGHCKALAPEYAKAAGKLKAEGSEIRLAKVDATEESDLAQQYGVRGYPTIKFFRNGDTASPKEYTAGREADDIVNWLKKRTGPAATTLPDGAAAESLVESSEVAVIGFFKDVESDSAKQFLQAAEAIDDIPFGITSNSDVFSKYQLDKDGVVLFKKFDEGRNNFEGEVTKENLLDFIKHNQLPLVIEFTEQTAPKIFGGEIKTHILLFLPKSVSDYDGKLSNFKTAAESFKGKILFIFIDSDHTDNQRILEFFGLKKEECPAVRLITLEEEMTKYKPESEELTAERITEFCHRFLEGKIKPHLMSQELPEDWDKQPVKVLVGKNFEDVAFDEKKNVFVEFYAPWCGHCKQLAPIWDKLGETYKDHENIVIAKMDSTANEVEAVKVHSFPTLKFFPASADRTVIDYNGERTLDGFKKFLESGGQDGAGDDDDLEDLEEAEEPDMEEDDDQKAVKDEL

Compound | selectivity for PDI among thiol isomerases (PDI [1]) | cleavage of di-eosin-GSSG probe by PDI (reductase activity at catalytic cysteines) (PDI [2]) | inhibition of SFLLRN-induced platelet aggregation (Washed human platelets) | reversibility of inhibition of platelet aggregation after washing (Washed human platelets) | insulin reductase activity of b′xa′ domains [3] | insulin reductase activity of isolated a domain [3] | insulin reductase activity of isolated a′ domain [3] | insulin reductase activity of ab domain [4] | insulin reductase activity of abb′ domains [5] | increase in ANS fluorescence upon incubation with PDI (PDI [6]) | reversibility of PDI inhibition in the insulin reductase assay (PDI [1]; 100-fold dilution of 6 μM bepristat 2a or 300 μM PACMA-31, FIG. 9) | inhibitory activity in the insulin turbidimetric assay compared with quercetin-3-rutinoside, PACMA-31 and bacitracin (PDI [1]; FIG. 1e) | pIC50 (PDI [1]; insulin reductase assay, FIG. 1b) | apparent kcat (PDI [2]; Michaelis-Menten analysis, incubation with compound, 1135 min^−1 without bepristats) | fluorescence of di-eosin-GSSG in the absence of PDI (PDI [2]; no PDI)
C#CC(=O)N(c1ccc(OC)cc1OC)C(C(=O)NCC(=O)OCC)c1cccs1 (stereo not shown) [PACMA-31, N-(2,4-Dimethoxyphenyl)-N-(1-oxo-2-propyn-1-yl)-2-(2-thienyl)glycyl-glycine ethyl ester, reference compound] | not entirely selective for PDI among thiol isomerases | blocked PDI-mediated cleavage of di-eosin-GSSG | inhibited platelet aggregation | irreversibly inhibited | inhibited reductase activity of all PDI fragments | inhibited reductase activity of all PDI fragments | inhibited reductase activity of all PDI fragments | inhibited reductase activity of all PDI fragments | inhibited reductase activity of all PDI fragments | failed to block ANS fluorescence | – | – | – | – | –
CCOC(=O)c1c(CNCCN(CC)CC)n(-c2ccccc2)c2cc(Br)c(O)cc12 [bepristat 2a] | selective among vascular thiol isomerases | enhanced cleavage of the di-eosin-GSSG probe by PDI | inhibited platelet aggregation | restored following washing | blocked activity | did not have activity | did not have activity | did not have activity | blocked activity | interfered with the increase in ANS fluorescence | readily reversed by dilution to a subinhibitory concentration | more potent inhibitory activity | ~5.92 | 33.25 s⁻¹ | did not affect
